Consider four molecules from US20250011289A1, “1H-BENZO[B]AZEPIN-2(3H)-ONE COMPOUNDS, COMPOSITIONS AND METHODS OF TREATING CANCER” (Chengdu Anticancer Bioscience, Ltd., priority 2021, published 2025).

Read-outs that look alike come from different tables or passages of the source.

In experiment [1] the test system is RPE-Neo or RPE-MYC cells. Description: MTT assay of cellular proliferation. The format is cell-based. To be noted: compounds at 20 nM to 20 μM; read-out: Min. Effective conc. for Proliferative arrest (>50%). An outline of the steps: (§1)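 RPE-Neo, RPE-MYC or RPE-MYC EGFP-Histone 2B cells exposed to compound at 20 nM to 20 μM, 18-24 h after plating. Mitotic arrest or DNA-content change imaged at 24, 48 or 72 h; proliferation by MTT. Values binned A (1 nM–1.0 μM), B (>1.00–10.0 μM), C (>10.0–30.0 μM), D (>30.0–<1000 μM).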

Experiment [2] concerns RPE-Neo or RPE-MYC or RPE-MYC expressing an EGFP-Histone 2B fusion protein. Kind of experiment: Phenotypic screening assay (arrest in mitosis or change in DNA content, IN-Cell Analyzer). Format: cell-based. To be noted: compounds at 20 nM to 20 μM, analysed 24, 48 or 72 hours after initiation of treatment. An outline of the steps: as §1
[3] abbreviates: read-out: Min. Effective conc. for Along with Cell Death.
The mark [4] stands for this setting: read-out: Min. Effective conc. for Mitotic Arrest (>5%).
Setting [5] is: read-out: Min. Effective conc. for Polyploidy (≥5%).

Consider `Cc1ccc(CN2C(=O)CC(COCC3CCCO3)=C(Br)c3ccccc32)cc1F` (stereo not shown) [Compound 44-4, 5-bromo-1-(3-fluoro-4-methylbenzyl)-4-(((tetrahydrofuran-2-yl)methoxy)methyl)-1,3-dihydro-2H-benzo[b]azepin-2-one], for which the minimal effective concentration in experiment [1], in experiment [2] (setting [3]), in experiment [2] (setting [4]) and in experiment [2] (setting [5]) was 1 to 10 µM in each case.
Consider `Cc1ccc(CN2C(=O)CC(CO[C@@H]3CCOC3)=C(Br)c3ccccc32)cc1F` [Compound 44-5, (R)-5-bromo-1-(3-fluoro-4-methylbenzyl)-4-(((tetrahydrofuran-3-yl)oxy)methyl)-1,3-dihydro-2H-benzo[b]azepin-2-one], for which the minimal effective concentration in experiment [1], in experiment [2] (setting [3]), in experiment [2] (setting [4]) and in experiment [2] (setting [5]) was 0.001 to 1 µM each time.
As to `Cc1ccc(CN2C(=O)CC(CO[C@H]3CCOC3)=C(Br)c3ccccc32)cc1F` [Compound 44-6, (S)-5-bromo-1-(3-fluoro-4-methylbenzyl)-4-(((tetrahydrofuran-3-yl)oxy)methyl)-1,3-dihydro-2H-benzo[b]azepin-2-one], the minimal effective concentration in experiment [1], in experiment [2] (setting [3]), in experiment [2] (setting [4]) and in experiment [2] (setting [5]) was 0.001 to 1 µM in each case.
Turning to `Cc1ccc(CN2C(=O)CC(CN3CCCC3)=C(Br)c3ccccc32)cc1F` [Compound 45, 5-bromo-1-(3-fluoro-4-methylbenzyl)-4-(pyrrolidin-1-ylmethyl)-1,3-dihydro-2H-benzo[b]azepin-2-one], the minimal effective concentration in experiment [1], in experiment [2] (setting [3]), in experiment [2] (setting [4]) and in experiment [2] (setting [5]) was 1 to 10 µM throughout.
